Assay results published in publication PMC9571608, “Detection of Bitterness in Vitamins Is Mediated by the Activation of Bitter Taste Receptors” (Nutrients, 2022).
“And” between values parts separate entries of the source, which are not always exact repeats. Identical values can stand only once. Counter-ions that a name gives are not always drawn. Like-named read-outs stand apart in the source and are kept apart here.

What was measured:
[1] = tested on: human bitter taste detection (sensory panel); test: Human bitter taste detection threshold, three-alternative forced choice (3-AFC), BET method; format: in vivo; conditions: 32 panelists, group BET
Excerpt: Based on bibliographic studies, preliminary works performed in the laboratory, and the results of taste receptor functional assays, the following vitamins were included in this study: vitamin B1 (thiamine hydrochloride), vitamin B2 (riboflavin phosphate), vitamin B3 (niacinamide), and vitamin B6 (pyridoxine hydrochloride). These vitamins are present in high quantities in nutritional supplements, safe for humans (except at very high concentrations), and can induce a strong bitter taste. These concentrations were determined according to the toxicity threshold of each compound tested and the maximum daily reference intake. These compounds were prepared in commercial mineral water (Evian®, Evian, France).
The threshold values for bitter taste detection were determined by 32 panelists (18–65 years old, 14 males and 18 females, without sensory perception disorders, food allergies, drug treatments, or heart, lung, or cardiac pathologies) who were recruited from Dijon (France) and the surrounding areas. An ethical committee approved this study (Personal Protection Committee of Rennes—Ouest V, protocol code 2018A01342-53), and all panelists signed an informed consent form. A sensory test called three-alternative forced choice (3-AFC) was used in accordance with the protocol detailed in NF ISO 13301. Before performing the measurement sessions, four training sessions were provided to familiarize the panelists with the bitter taste, test procedure, and signal acquisition software. In this discriminative test, six series consisting of three samples, which were each encoded using randomly generated three-digit numbers, were simultaneously delivered to the panelists. The six 3-AFC presentations contained two blank samples (commercial mineral water, manufacturer: Evian, France) and ascending concentrations of vitamin solution. Before the test, subjects were advised that each presentation consisted of two samples that contained only water and one sample that contained a taste. For each 3-AFC presentation, subjects were asked to take the samples sequentially from left to right. Then, they placed the entirety of each sample solution in their mouths and carefully gargled to ensure that the solution was dispersed throughout the mouth. A sip-and-spit procedure was used; subjects rinsed their mouths with commercial mineral water between each series of tests. Subjects were asked to indicate which of the samples contained the stimulus. If a subject perceived no difference between the three samples, he or she was asked to choose one (forced choice). The sensory tests were conducted in a room devoted to sensory evaluation. For the case of colored samples, black-colored glasses were used, and tastings were performed under red light. […] The aim of this sensory analysis was to determine the bitter taste detection threshold for these vitamins and not an olfactory detection threshold. Therefore, the measurements were conducted using pinched nose clips. The subjects waited one minute between each series and had to thoroughly rinse their mouths. Four repetitions were performed per subject for each vitamin to obtain statistically interpretable results, which represented a total of 288 samples. During the sensory analysis session, a bitterness detection threshold of only two vitamins was used (36 samples) to avoid the ingestion of a high vitamin quantity, which is potentially harmful. The answers from the panelists were collected using software dedicated to sensory analysis (FIZZ acquisition V.2.51 software).
The best estimate threshold (BET) method was used to determine the bitter detection threshold for four vitamins. The individual best-estimated detection threshold (BET) was proposed in ASTM E679-04. ASTM E679-04 is a standard practice for the determination of odor and taste thresholds via a forced-choice ascending concentration series method of limits. […]

[2] = biological target: T1, TAS2R1 (Homo sapiens, UniProt Q9NYW7); conditions: cited from earlier work
[3] = biological target: T2, TAS2R7 (Homo sapiens, UniProt Q9NYW3); test: Calcium mobilization assay, cells transiently expressing TAS2R7; format: cell-based; parameters: expressed in transfected cells; host or cells: HEK293T cells stably expressing Gα16gust44; conditions: vitamin B1 as thiamine hydrochloride, up to M.A.C 1 mM
T2 sequence (Q9NYW3 1-318): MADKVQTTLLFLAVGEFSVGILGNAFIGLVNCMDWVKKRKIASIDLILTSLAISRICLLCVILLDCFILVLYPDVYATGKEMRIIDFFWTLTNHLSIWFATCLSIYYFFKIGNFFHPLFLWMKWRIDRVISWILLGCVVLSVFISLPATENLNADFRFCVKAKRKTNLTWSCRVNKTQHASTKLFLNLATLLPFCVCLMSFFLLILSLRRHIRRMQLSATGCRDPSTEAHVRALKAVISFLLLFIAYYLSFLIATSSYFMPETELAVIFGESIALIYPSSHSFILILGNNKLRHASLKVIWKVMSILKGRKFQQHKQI
Description: (§1) A functional expression study was carried out as described previously. TAS2R expression vectors (pcDNA5FRT-SST3-TAS2R-HSV and pEAK-10-SST3-TAS2RHSV) were kindly provided by Wolfgang Meyerhof (German Institute of Human Nutrition Postdam-Rehbruecke, Nuthetal, Germany). For all constructs, the N-terminus contained the first 45 amino acids of rat somatostatin 3 (SST3) to improve membrane targeting. A sequence coding for a herpes simplex virus glycoprotein D epitope (HSV-tag) was added at the C-terminus to allow immunocytochemical detection of the receptor [13, 14, 23, 24]. HEK293T cells stably expressing the chimeric G protein α subunit Gα16gust44 [25, 26] were seeded into poly-D-lysine-coated 96-well black plates (0.35 × 10^5 cells/well) in high-glucose DMEM supplemented with 2 mM GlutaMAX, 10% dialysed fetal bovine serum penicillin/streptomycin, and G418 (400 µg/mL), and then placed under a humidified and controlled atmosphere (37 °C and 6.3% CO2) overnight. After 24–26 h of incubation, cells were transiently transfected with TAS2R expression plasmids (120 ng/well) using Lipofectamine 2000 reagent (0.4 µL/well) (Thermo Fisher Scientific, Illkirch-Graffenstaden, France).
(§2) Approximately 24–26 h after transfection, cells were loaded for 1 h at 37 °C with Fluo4-AM (2 µM, Molecular Probes), which had been previously mixed with pluronic acid F-127 (0.01%) in C1 buffer (130 mM NaCl, 5 mM KCl, 10 mM HEPES, 2 mM CaCl2, 10 mM pyruvic acid, pH 7.4, 300 mOsm) containing 2.5 mM probenecid (Life Technologies). Approximately one hour after loading, the plate was rinsed twice with 100 µL of C1 buffer. The calcium signal was recorded for 90 s after injection of a range of compounds using a Flexstation 3 fluorometric imaging plate reader (Molecular Devices) at a wavelength of 510 nm after excitation at 488 nm. All substance concentrations were measured in triplicate in at least three independent experiments. As cell transfection and substances can interfere with cellular viability and calcium assays, all compounds were tested on mock-transfected cells (cells transfected with empty vectors) on the same plates for all substance concentrations used.
To obtain a dose–response curve, the ratio between the maximum variation in fluorescence after ligand addition and the initial fluorescence before addition (ΔF/F0) was calculated for each well. The fluorescence signals collected for each replicate were averaged for the same substance concentration, and the fluorescence changes in the corresponding mock-transfected cells were subtracted. […] The dose–response data were fitted, and EC50 values were calculated using a four-parameter logistic equation using SigmaPlot software (Systat Software, San Jose, CA, USA). […]

[4] = biological target: T3, TAS2R39 (Homo sapiens, UniProt P59534); conditions: cited from earlier work
[5] = biological target: T2, TAS2R7; conditions: cited from earlier work
[6] = biological target: T3, TAS2R39; conditions: vitamin B1 as thiamine hydrochloride, up to M.A.C 1 mM
Description: as §1, with “After 24–26 h of incubation, cells were transiently transfected with TAS2R expression plasmids (120 ng/well) using Lipofectamine 2000 reagent (0.4 µL/well) (Thermo Fisher Scientific, Illkirch-Graffenstaden, France).” left out
as §2, with “Approximately one hour after loading, the plate was rinsed twice with 100 µL of C1 buffer.” left out, “As cell transfection and substances can interfere with cellular viability and calcium assays, all compounds were tested on mock-transfected cells (cells transfected with empty vectors) on the same plates for all substance concentrations used.” left out
(§3) To obtain a dose–response curve, the ratio between the maximum variation in fluorescence after ligand addition and the initial fluorescence before addition (ΔF/F0) was calculated for each well. The fluorescence signals collected for each replicate were averaged for the same substance concentration, and the fluorescence changes in the corresponding mock-transfected cells were subtracted. […]

[7] = biological target: T1, TAS2R1
Description: as §1, with “After 24–26 h of incubation, cells were transiently transfected with TAS2R expression plasmids (120 ng/well) using Lipofectamine 2000 reagent (0.4 µL/well) (Thermo Fisher Scientific, Illkirch-Graffenstaden, France).” left out
as §2, with “Approximately one hour after loading, the plate was rinsed twice with 100 µL of C1 buffer.” left out, “As cell transfection and substances can interfere with cellular viability and calcium assays, all compounds were tested on mock-transfected cells (cells transfected with empty vectors) on the same plates for all substance concentrations used.” left out
as §3

[8] = tested on: 25 human TAS2Rs; test: Taste receptor functional assay, panel of 25 human TAS2Rs; format: cell-based; conditions: lowest concentration that could elicit TAS2R activation
Description: A functional expression study was carried out as described previously. TAS2R expression vectors (pcDNA5FRT-SST3-TAS2R-HSV and pEAK-10-SST3-TAS2RHSV) were kindly provided by Wolfgang Meyerhof (German Institute of Human Nutrition Postdam-Rehbruecke, Nuthetal, Germany). For all constructs, the N-terminus contained the first 45 amino acids of rat somatostatin 3 (SST3) to improve membrane targeting. A sequence coding for a herpes simplex virus glycoprotein D epitope (HSV-tag) was added at the C-terminus to allow immunocytochemical detection of the receptor [13, 14, 23, 24]. […]
as §2, with “Approximately one hour after loading, the plate was rinsed twice with 100 µL of C1 buffer.” left out, “As cell transfection and substances can interfere with cellular viability and calcium assays, all compounds were tested on mock-transfected cells (cells transfected with empty vectors) on the same plates for all substance concentrations used.” left out

[9] = aqueous solution (mineral water), nose clips

T1 sequence (Q9NYW7 whole entry): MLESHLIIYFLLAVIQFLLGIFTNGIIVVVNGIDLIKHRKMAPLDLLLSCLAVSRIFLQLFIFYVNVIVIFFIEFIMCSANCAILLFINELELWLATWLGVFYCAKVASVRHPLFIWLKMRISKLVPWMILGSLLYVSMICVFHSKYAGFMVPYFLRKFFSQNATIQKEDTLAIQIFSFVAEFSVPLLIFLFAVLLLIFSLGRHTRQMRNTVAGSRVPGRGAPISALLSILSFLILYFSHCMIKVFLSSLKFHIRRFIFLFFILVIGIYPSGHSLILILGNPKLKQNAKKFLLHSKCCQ
T3 sequence (P59534 whole entry): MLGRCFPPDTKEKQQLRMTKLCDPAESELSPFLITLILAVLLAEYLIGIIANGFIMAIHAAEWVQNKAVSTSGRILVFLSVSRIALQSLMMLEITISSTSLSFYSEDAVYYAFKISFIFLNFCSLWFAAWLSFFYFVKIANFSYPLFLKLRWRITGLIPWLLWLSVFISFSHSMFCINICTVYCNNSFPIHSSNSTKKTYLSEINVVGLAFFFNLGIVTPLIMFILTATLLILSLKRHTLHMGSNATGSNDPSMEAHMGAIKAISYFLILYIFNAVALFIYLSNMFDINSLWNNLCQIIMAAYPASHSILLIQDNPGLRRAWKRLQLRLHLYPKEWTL

| TAS2R7 activation [3] | TAS2R39 activation [6] | TAS2R1 activation ([7]; 0.1 mM) | TAS2R Receptor 1 response ([7]; HEK293T-Gα16gust44 cells, calcium signal, up to M.A.C) | SMILES | Human Bitter Taste Detection Threshold ([1]; Figure 3, aqueous solution) [mM] | Human Bitter Taste Detection Threshold [1, 9] | TAS2R1 activation [2] | TAS2R39 activation [4] | TAS2R7 activation [5] | Cellular Bitter Taste Detection Threshold [8] | Human Bitter Taste Detection Threshold ([1]; aqueous solution (mineral water), nose clips, listed as B1) [mM] | Human Bitter Taste Detection Threshold ([1]; aqueous solution (mineral water), nose clips, listed as vitamin B1) [mM] |
| --- | --- | --- | --- | --- | --- | --- | --- | --- | --- | --- | --- | --- |
|  |  |  |  | NC(=O)c1cccnc1 [Vitamin B3, niacinamide] | 5.5 | 5.5 mM and 5.50 mM |  |  |  |  |  |  |
|  |  |  |  | Cc1cc2nc3c(=O)[nH]c(=O)nc-3n(C[C@H](O)[C@H](O)[C@H](O)COP(=O)(O)O)c2cc1C [Vitamin B2, riboflavin phosphate] | 0.65 | 0.65 mM |  |  |  |  |  |  |
| unable to demonstrate the activation | unable to demonstrate the activation | activation | + | Cc1ncc(C[n+]2csc(CCO)c2C)c(N)n1 [Vitamin B1, thiamine hydrochloride] | 1.1 |  | activation | activation | activation | 0.1 mM and 0.10 mM | 1.10 | 1.1 |
